We go through 15 sequences from patent US20030144233A1, “Conformation-activity relationship of apoptosis-inducing phosphodiester oligonucleotides” (priority 2001, published 2003).

This assay deals with Human Jurkat T cell leukemia cells. The experiment in a line: Analysis of apoptosis by Annexin V FITC / propidium iodide staining and flow cytometry. It counts as cell-based. Conditions: for % apoptosis / Apoptosis (%): Jurkat T cells, oligonucleotides at final concentration of 53 μM; for Apoptosis (%): Table 1. The protocol: Human Jurkat T cell leukemia cells were obtained from the American Type Culture Collection (Rockville, Md.). The Jurkat T cells were maintained RPMI 1640 medium, supplemented with 10% heat-inactivated (56° C., 30 min) fetal bovine serum (all from Sigma Aldrich, Canada) in an atmosphere of 5% CO2 at 37° C. Cells were seeded at 2×10^5 cells/ml medium in 6-well float-bottomed tissue culture plates and incubated with oligonucleotides at a final concentration of 53 μM.
Apoptosis was measured by staining cells with Annexin V FITC and propidium iodide (PI) (BD Pharmingen, San Diego, Calif. USA) according to the manufacturer's instructions. Flow Cytometry (FCM) determined cellular fluorescence. The FCM and data analysis were carried out using a FACSCalibur instrument (excitation 488 nm, emission 530 nm for Annexin-V and 580 nm for PI) using the program CELLQuest.
(In flow cytometry, cells or beads pass a laser one at a time.)

Consider GTGTGT, for which the “% apoptosis” value (Table 3) came to 67%.
Consider GGGCGG, for which the “Apoptosis (%)” value is on record as 17%.
With TGGTTG, the “% apoptosis” value (Table 3) came out at 69%.
Take AAGTAA: the “% apoptosis” value (Table 2) turned out to be 23%.
As to ATGTAT, for the setting “Table 2”, the “% apoptosis” value is on record as 37%.
For GGGAG, the “ACTUAL % OF CELLS IN APOPTOSIS” value (new sequences tested in vitro after prediction, Table 4) is 73%.
As to TCGTTC, the “Apoptosis (%)” value was determined as 9.5%.
Regarding GGTTGG, where the note is “Table 3”, the “% apoptosis” value is 66%.
As to CCGTCC, the “Apoptosis (%)” value is listed as 5%.
GGAAGG: the “% apoptosis” value (Table 3) is 59%.
For the sequence TGTGTG, the “% apoptosis” value (Table 3) is 66%.
With GGGGGG, the “Apoptosis (%)” value is listed as 4%.
Take GGGTGG: the “% apoptosis” value (Table 3) is 50%. Where the note is “phosphodiester versus phosphorothioate backbone”, this sequence yielded an apoptosis-inducing activity of 50%.
Take GGCCGG: the “% apoptosis” value (Table 2) worked out at 21%.
As to CTGTCT, the “Apoptosis (%)” value is recorded as 14%.
